Activity calls are given as the source filed them. The calls are words filed in the database; no cut-off is given here.
Assays:
Oryza sativa [1] = test: Effect on total amino acids level in Sogatella furcifera-sensitive Oryza sativa (rice) plant ARC6248 leaf sheath measured per gram of dry weight at 0.100% concentration (reference value: 2.11 mg/g fresh wt); assay type: ADME, organism-based; conditions: in vivo
Sogatella furcifera [2] = test: Insecticidal activity against Sogatella furcifera on insect-resistanct rice plant PR116 assessed as hopper population at 0.100% concentration; assay type: functional, organism-based
Oryza sativa [3] = test: Effect on total phenols level in Sogatella furcifera-sensitive Oryza sativa (rice) plant ARC6248 leaf sheath measured per gram of dry weight at 0.100% concentration (reference value: 12.75 mg/g dry wt); assay type: ADME, organism-based; conditions: in vivo
Oryza sativa [4] = test: Effect on total phenols level in Sogatella furcifera-resistanct Oryza sativa (rice) plant PR116 leaf blade measured per gram of dry weight at 0.100% concentration (reference value: 8.08 mg/g dry wt); assay type: ADME, organism-based; conditions: in vivo
Sogatella furcifera [5] = test: Insecticidal activity against Sogatella furcifera on insect-sensitive rice plant ARC6248 assessed as nymphal duration at 0.100% concentration (reference value: 14.48 days); assay type: functional
Oryza sativa [6] = test: Effect on total protein level in Sogatella furcifera-resistanct Oryza sativa (rice) plant PR116 leaf blade measured per gram of dry weight at 0.100% concentration (reference value: 21.67 mg/g fresh wt); assay type: ADME, organism-based; conditions: in vivo
Oryza sativa [7] = test: Effect on reducing sugar level in Sogatella furcifera-resistanct Oryza sativa (rice) plant PR116 leaf sheath measured per gram of dry weight at 0.100% concentration (reference value: 7.50 mg/g dry wt); assay type: ADME, organism-based; conditions: in vivo
Oryza sativa [8] = test: Effect on total protein level in Sogatella furcifera-sensitive Oryza sativa (rice) plant ARC6248 leaf sheath measured per gram of dry weight at 0.100% concentration (reference value: 6.11 mg/g […]); assay type: ADME, organism-based; conditions: in vivo
Oryza sativa [9] = test: Effect on total amino acids level in Sogatella furcifera-sensitive Oryza sativa (rice) plant ARC6248 leaf blade measured per gram of dry weight at 0.100% concentration (reference value: 3.54 mg/g fresh wt); assay type: ADME, organism-based; conditions: in vivo
Oryza sativa [10] = test: Effect on reducing sugar level in Sogatella furcifera-sensitive Oryza sativa (rice) plant ARC6248 leaf sheath measured per gram of dry weight at 0.100% concentration (reference value: 6.41 mg/g dry wt); assay type: ADME, organism-based; conditions: in vivo
Sogatella furcifera [11] = test: Insecticidal activity against Sogatella furcifera on insect-sensitive rice plant ARC6248 assessed as reproduction at 0.100% concentration; assay type: functional, organism-based
Oryza sativa [12] = test: Effect on total phenols level in Sogatella furcifera-sensitive Oryza sativa (rice) plant ARC6248 leaf blade measured per gram of dry weight at 0.100% concentration (reference value: 17.08 mg/g dry wt); assay type: ADME, organism-based; conditions: in vivo
Oryza sativa [13] = test: Effect on reducing sugar level in Sogatella furcifera-resistanct Oryza sativa (rice) plant PR116 leaf blade measured per gram of dry weight at 0.100% concentration (reference value: 9.35 mg/g dry wt); assay type: ADME, organism-based; conditions: in vivo
Oryza sativa [14] = test: Effect on total phenols level in Sogatella furcifera-resistanct Oryza sativa (rice) plant PR116 leaf sheath measured per gram of dry weight at 0.100% concentration (reference value: 5.75 mg/g dry wt); assay type: ADME, organism-based; conditions: in vivo
Sogatella furcifera [15] = test: Insecticidal activity against Sogatella furcifera on insect-sensitive rice plant ARC6248 assessed as nymphal survival at 0.100% concentration (reference value: 34.17%); assay type: functional
Oryza sativa [16] = test: Effect on reducing sugar level in Sogatella furcifera-sensitive Oryza sativa (rice) plant ARC6248 leaf blade measured per gram of dry weight at 0.100% concentration (reference value: 8.37 mg/g dry wt); assay type: ADME, organism-based; conditions: in vivo
Sogatella furcifera [17] = test: Insecticidal activity against Sogatella furcifera on insect-resistanct rice plant PR116 assessed as nymphal duration at 0.100% concentration (reference value: 11.75 days); assay type: functional
Sogatella furcifera [18] = test: Insecticidal activity against Sogatella furcifera on insect-resistanct rice plant PR116 assessed as growth index at 0.100% concentration (reference value: 6.02%); assay type: functional
Oryza sativa [19] = test: Effect on total protein level in Sogatella furcifera-resistanct Oryza sativa (rice) plant PR116 leaf sheath measured per gram of dry weight at 0.100% concentration (reference value: 7.06 mg/g fresh wt); assay type: ADME, organism-based; conditions: in vivo
Oryza sativa [20] = test: Effect on total amino acids level in Sogatella furcifera-resistanct Oryza sativa (rice) plant PR116 leaf sheath measured per gram of dry weight at 0.100% concentration (reference value: 2.58 mg/g […]); assay type: ADME, organism-based; conditions: in vivo
Oryza sativa [21] = test: Effect on total amino acids level in Sogatella furcifera-resistanct Oryza sativa (rice) plant PR116 leaf blade measured per gram of dry weight at 0.100% concentration (reference value: 3.91 mg/g […]); assay type: ADME, organism-based; conditions: in vivo
Sogatella furcifera [22] = test: Insecticidal activity against Sogatella furcifera on insect-resistanct rice plant PR116 assessed as resurgence ratio at 0.100% concentration; assay type: functional
Oryza sativa [23] = test: Effect on total sugar level in Sogatella furcifera-resistanct Oryza sativa (rice) plant PR116 leaf sheath measured per gram of dry weight at 0.100% concentration (reference value: 30.27 mg/g dry wt); assay type: ADME, organism-based; conditions: in vivo
Sogatella furcifera [24] = test: Insecticidal activity against Sogatella furcifera on insect-sensitive rice plant ARC6248 assessed as growth index at 0.100% concentration (reference value: 2.38%); assay type: functional
Oryza sativa [25] = test: Effect on total protein level in Sogatella furcifera-sensitive Oryza sativa (rice) plant ARC6248 leaf blade measured per gram of dry weight at 0.100% concentration (reference value: 17.67 mg/g […]); assay type: ADME, organism-based; conditions: in vivo
Sogatella furcifera [26] = test: Insecticidal activity against Sogatella furcifera on insect-sensitive rice plant ARC6248 assessed as resurgence ratio at 0.100% concentration; assay type: functional
Oryza sativa [27] = test: Effect on total sugar level in Sogatella furcifera-resistanct Oryza sativa (rice) plant PR116 leaf blade measured per gram of dry weight at 0.100% concentration (reference value: 36.16 mg/g dry wt); assay type: ADME, organism-based; conditions: in vivo
Oryza sativa [28] = test: Effect on total sugar level in Sogatella furcifera-sensitive Oryza sativa (rice) plant ARC6248 leaf blade measured per gram of dry weight at 0.100% concentration (reference value: 34.05 mg/g dry wt); assay type: ADME, organism-based; conditions: in vivo
Oryza sativa [29] = test: Effect on total sugar level in Sogatella furcifera-sensitive Oryza sativa (rice) plant ARC6248 leaf sheath measured per gram of dry weight at 0.100% concentration (reference value: 25.98 mg/g dry wt); assay type: ADME, organism-based; conditions: in vivo
Sogatella furcifera [30] = test: Insecticidal activity against Sogatella furcifera on insect-resistanct rice plant PR116 assessed as nymphal survival at 0.100% concentration (reference value: 70.28%); assay type: functional

Row | SMILES | Activity (Oryza sativa [1]) | Activity (Sogatella furcifera [2]) | Activity (Oryza sativa [3]) | Activity (Oryza sativa [4]) | Time (Sogatella furcifera [5]) | Activity (Oryza sativa [6]) | Activity (Oryza sativa [7]) | Activity (Oryza sativa [8]) | Activity (Oryza sativa [9]) | Activity (Oryza sativa [10]) | Activity (Sogatella furcifera [11]) | Activity (Oryza sativa [12]) | Activity (Oryza sativa [13]) | Activity (Oryza sativa [14]) | Survival (Sogatella furcifera [15]) | Activity (Oryza sativa [16]) | Time (Sogatella furcifera [17]) | growth inhibition (GI) (Sogatella furcifera [18]) | Activity (Oryza sativa [19]) | Activity (Oryza sativa [20]) | other results
1 | CCOP(=S)(OCC)Oc1nc(Cl)c(Cl)cc1Cl [CHLORPYRIFOS] | 1.75 mg | inactive | 14.08 mg | 7.67 mg | 14.63 days | 19.44 mg | 7.72 mg | 5 mg | 3 mg | 6.31 mg | inactive | 18.75 mg | 9.13 mg | 6.08 mg | 32.5% | 7.5 mg | 11.75 days | 5.94% | 7.72 mg | 2.22 mg | Activity (Oryza sativa [21]): 4 mg; Ratio (Sogatella furcifera [22]): <1; Activity (Oryza sativa [23]): 31.34 mg; growth inhibition (GI) (Sogatella furcifera [24]): 2.25%; Activity (Oryza sativa [25]): 18.22 mg; Ratio (Sogatella furcifera [26]): <1; Activity (Oryza sativa [27]): 39.37 mg; Activity (Oryza sativa [28]): 33.21 mg; Activity (Oryza sativa [29]): 25.98 mg; Survival (Sogatella furcifera [30]): 69.45%
2 | O=S1OCC2C(CO1)C1(Cl)C(Cl)=C(Cl)C2(Cl)C1(Cl)Cl (stereo not given) [ENDOSULFAN] | 2.46 mg | inactive | 17.08 mg | 10 mg | 14.5 days | 18.33 mg | 7.17 mg | 5 mg | 3.31 mg | 5.98 mg | inactive | 21.75 mg | 8.26 mg | 7.83 mg | 32.22% | 7.94 mg | 12 days | 5.66% | 7.78 mg | 2.4 mg | Activity (Oryza sativa [21]): 3.38 mg; Ratio (Sogatella furcifera [22]): <1; Activity (Oryza sativa [23]): 28.12 mg; growth inhibition (GI) (Sogatella furcifera [24]): 2.24%; Activity (Oryza sativa [25]): 16.56 mg; Ratio (Sogatella furcifera [26]): <1; Activity (Oryza sativa [27]): 34.02 mg; Activity (Oryza sativa [28]): 34.55 mg; Activity (Oryza sativa [29]): 30 mg; Survival (Sogatella furcifera [30]): 67.5%
3 | CCOP(=S)(OCC)Oc1cnc2ccccc2n1 [QUINALPHOS] | 2.38 mg | inactive | 1308 mg | 6.75 mg | 14.46 days | 22.78 mg | 11.31 mg | 7.22 mg | 3.61 mg | 8.8 mg | inactive | 17.08 mg | 13.04 mg | 5.67 mg | 37.5% | 10 mg | 11.65 days | 6.24% | 8.5 mg | 2.93 mg | Activity (Oryza sativa [21]): 4.89 mg; Ratio (Sogatella furcifera [22]): 1.31; Activity (Oryza sativa [23]): 30.27 mg; growth inhibition (GI) (Sogatella furcifera [24]): 2.61%; Activity (Oryza sativa [25]): 21.56 mg; Ratio (Sogatella furcifera [26]): 1.13; Activity (Oryza sativa [27]): 42.05 mg; Activity (Oryza sativa [28]): 38.84 mg; Activity (Oryza sativa [29]): 31.87 mg; Survival (Sogatella furcifera [30]): 72.22%

Source: ChEMBL document CHEMBL3045481, “Insecticide-induced resurgence of the whitebacked planthopper Sogatella furcifera (Horvath) (Hemiptera: Delphacidae) on rice varieties with different levels of resistance” (Crop Prot, 2011)
